In ChEMBL document CHEMBL4270619, “Mycobacterial siderophore: A review on chemistry and biology of siderophore and its potential as a target for tuberculosis” (Eur J Med Chem, 2018) one finds Stability and Ratio data, which are given here for nine compounds.

One series is described as follows: Stability in rat plasma. Format: ADME, cell-free.
Conditions: not given
For the compound `CCN(CC)CC.Nc1ncnc2c1ncn2[C@@H]1O[C@H](COS(=O)(=O)NC(=O)c2ccccc2O)[C@@H](O)[C@H]1O`, the Stability was 100%.

A further series can be described thus: Stability in human plasma. The series is classed as ADME, cell-free.
Conditions: not given
`CCN(CC)CC.Nc1ncnc2c1ncn2[C@@H]1O[C@H](COS(=O)(=O)NC(=O)c2ccccc2O)[C@@H](O)[C@H]1O` gave a Stability of 100%.

A short description of a further series: Efflux ratio of apparent permeability from basolateral to apical over apical to basolateral side in human Caco2 cells. The note with it: caco-2. The series is classed as ADME, cell-based. Background: Passage across Caco-2 layers is used to estimate intestinal permeability.
On to `CC(=O)O[C@H]1[C@@H](F)[C@H](n2cnc3c(N)ncnc32)O[C@@H]1COS(=O)(=O)NC(=O)c1ccccc1O.CCN(CC)CC`, for which the Ratio lay in the range of 1.5 to 8.5.
On the same count and under the same terms, the figure for `CCCC(=O)O[C@H]1[C@@H](F)[C@H](n2cnc3c(N)ncnc32)O[C@@H]1COS(=O)(=O)NC(=O)c1ccccc1O.CCN(CC)CC` is 1.5 to 8.5; for `CCCCC(=O)O[C@H]1[C@@H](F)[C@H](n2cnc3c(N)ncnc32)O[C@@H]1COS(=O)(=O)NC(=O)c1ccccc1O.CCN(CC)CC` it is 1.5 to 8.5; for `CC(C)C(=O)O[C@H]1[C@@H](F)[C@H](n2cnc3c(N)ncnc32)O[C@@H]1COS(=O)(=O)NC(=O)c1ccccc1O.CCN(CC)CC` it is 1.5 to 8.5.
Consider `CCC(=O)O[C@H]1[C@@H](F)[C@H](n2cnc3c(N)ncnc32)O[C@@H]1COS(=O)(=O)NC(=O)c1ccccc1O.CCN(CC)CC`, for which the Ratio lay in the range of 1.5 to 8.5.
The same measure, in the same setting: under `CCC(CC)C(=O)O[C@H]1[C@@H](F)[C@H](n2cnc3c(N)ncnc32)O[C@@H]1COS(=O)(=O)NC(=O)c1ccccc1O.CCN(CC)CC` stands 1.5 to 8.5; under `CCCCCCCCCCCC(=O)O[C@H]1[C@@H](F)[C@H](n2cnc3c(N)ncnc32)O[C@@H]1COS(=O)(=O)NC(=O)c1ccccc1O.CCN(CC)CC`, 1.5 to 8.5; under `CCCCCCCC(=O)O[C@H]1[C@@H](F)[C@H](n2cnc3c(N)ncnc32)O[C@@H]1COS(=O)(=O)NC(=O)c1ccccc1O.CCN(CC)CC`, 1.5 to 8.5.
